In data set [1] the test system is A549 (human lung cancer cell). Put plainly: MTT assay, in vitro cytotoxicity on A549. To be noted: A549, read-out: Inhibitory Activity/% at 10 μM, A549.
Description: (§1) Cells were purchased from the Cell Bank of the Chinese Academy of Sciences (Kunming, China).
In data set [2] the test system is PC-3 (human prostate cancer cell). The experiment in a line: MTT assay, in vitro cytotoxicity on PC-3. To be noted: Homo sapiens, 10 μM, average of three replicates, "/" means no anticancer activity. For orientation: Tetrazolium dyes change colour on reduction, which living cells bring about.
Description: as §1
In data set [3] the test system is K562 (human chronic myeloid leukemia cell). Put plainly: MTT assay, in vitro cytotoxicity on K562. The following applies: Homo sapiens, K562, read-out: Inhibitory Activity/% at 10 μM, K562.
Description: as §1
The subject of data set [4] is T47D (human breast cancer cell). The experiment in a line: MTT assay, in vitro cytotoxicity on T47D. To be noted: read-out: Inhibitory Activity/% at 10 μM, T47D.
Description: as §1
Data set [5] deals with Hek-293T (human embryonic kidney cells). The experiment in a line: MTT assay, in vitro cytotoxicity on normal Hek-293T. To be noted: read-out: Inhibitory Activity/% at 10 μM, Hek-293T.
Description: as §1
Where [6] appears, read: read-out: Inhibitory Activity/% at 10 μM, PC-3, Table 1 (7 series).
The mark [7] stands for this setting: read-out: Inhibitory Activity/% at 10 μM, PC-3, Table 2 (8 series).

Where two headings read alike, the source gives them in different places.

In general, melting point refers to the temperature, or range, at which the solid turns liquid.

Regarding `O=c1[nH]cc(F)c(=O)[nH]1` [5-Fluorouracil, reference compound], in data set [1], the inhibition at 10 µM turned out to be 40.6 ± 2.04%.
`O=C(CSc1nnc(-c2cc3c(cn2)[nH]c2ccccc23)o1)N1CCN(c2ccc(Cl)c(Cl)c2)CC1` [Compound 7a] yielded a melting point of 168.3 to 170.9 °C. For the same compound, the inhibition at 10 µM in data set [2] (setting [6]) came out at 29.58 ± 0.25%. Also, the inhibition at 10 µM in data set [1] came to 0.72 ± 1.63%. Moreover, the inhibition at 10 µM in data set [3] stood at 0.85 ± 1.01%. For the same compound, in data set [4], the inhibition at 10 µM is 32.3 ± 3.36%. The inhibition at 10 µM in data set [5] stood at 18.6 ± 0.71%.
`O=C(CSc1nnc(-c2cc3c(cn2)[nH]c2ccccc23)o1)N1CCN(c2ccc(Br)cc2)CC1` [Compound 7b] showed a melting point of 275.4 to 277.7 °C. In addition, the inhibition at 10 µM in data set [2] (setting [6]) came to 29.09 ± 0.27%. In addition, in data set [1], the inhibition at 10 µM stood at 13.6 ± 7.88%. Besides, the inhibition at 10 µM in data set [3] was found to be 8.98 ± 3.13%. The inhibition at 10 µM in data set [4] was determined as 42.6 ± 1.65%. In addition, in data set [5], the inhibition at 10 µM was determined as 33.3 ± 0.8%.
As to `O=C(CSc1nnc(-c2cc3c(cn2)[nH]c2ccccc23)o1)N1CCN(c2ccc(O)cc2)CC1` [Compound 7c], the melting point fell in the range of 163.9 to 165.8 °C. For the same compound, the inhibition at 10 µM in data set [2] (setting [6]) came to 22.7 ± 2.19%. Also, in data set [1], the inhibition at 10 µM was 16.8 ± 2.39%. In data set [3], the inhibition at 10 µM is 18.1 ± 2.63%. In addition, the inhibition at 10 µM in data set [4] was found to be 40.2 ± 0.9%. Also, the inhibition at 10 µM in data set [5] was 47.3 ± 4.59%.
As for `O=C(CSc1nnc(-c2cc3c(cn2)[nH]c2ccccc23)o1)N1CCN(c2ccc(F)cc2)CC1` [Compound 7d], the inhibition at 10 µM in data set [2] (setting [6]) worked out at 26.5 ± 5.76%; in data set [1] it was 11.2 ± 0.69%; in data set [3] it was 17.8 ± 3.97%; in data set [4], 25.4 ± 4.82%; in data set [5], 36.9 ± 1.74%.
As to `O=C(CSc1nnc(-c2cc3c(cn2)[nH]c2ccccc23)o1)N1CCN(c2ccc(Cl)cc2)CC1` [Compound 7e], the melting point fell in the range of 246.4 to 248.3 °C. The inhibition at 10 µM in data set [2] (setting [6]) is 25 ± 4.06%. In addition, the inhibition at 10 µM in data set [1] is 18 ± 2.06%. In addition, the inhibition at 10 µM in data set [3] turned out to be 12.7 ± 4.72%. In data set [4], the inhibition at 10 µM was 47.7 ± 3.36%. Further, the inhibition at 10 µM in data set [5] is 26.4 ± 1.35%.
With `COc1ccc(N2CCN(C(=O)CSc3nnc(-c4cc5c(cn4)[nH]c4ccccc45)o3)CC2)cc1` [Compound 7f], the inhibition at 10 µM in data set [2] (setting [6]) was found to be 11.5 ± 2.78%; in data set [1], 13.5 ± 6.97%; in data set [3], 21.5 ± 3.02%; in data set [4] it was 42.4 ± 4.23%; in data set [5], 56.8 ± 2.21%.
Regarding `O=C(CSc1nnc(-c2cc3c(cn2)[nH]c2ccccc23)o1)N1CCN(c2ncccn2)CC1` [Compound 7g], the melting point was 212.6 to 213.3 °C. For the same compound, the inhibition at 10 µM in data set [2] (setting [6]) is 14.8 ± 2.23%. Besides, the inhibition at 10 µM in data set [1] was < 0%. For the same compound, in data set [3], the inhibition at 10 µM came to 0.05 ± 2.99%. For the same compound, the inhibition at 10 µM in data set [4] amounted to 42.5 ± 3.19%. Also, the inhibition at 10 µM in data set [5] turned out to be 34.1 ± 6.8%.
Regarding `O=C(CSc1nnc(-c2cc3c(cn2)[nH]c2ccccc23)o1)N1CCN(c2ccc(F)cc2F)CC1` [Compound 7h], the inhibition at 10 µM was 10.7 ± 2.68% in data set [2] (setting [6]); 2.16 ± 3.56% in data set [1]; 8.23 ± 4.12% in data set [3]; 46.4 ± 2.12% in data set [4]; 47.5 ± 0.78% in data set [5].
As for `O=C(CSc1nnc(-c2cc3c(cn2)[nH]c2ccccc23)o1)N1CCN(c2ccccc2)CC1` [Compound 7i], the melting point fell in the range of 148.9 to 150.6 °C. Moreover, the inhibition at 10 µM in data set [2] (setting [6]) came out at 35.6 ± 1.89%. Besides, the inhibition at 10 µM in data set [1] came out at 5.2 ± 7.21%. In addition, the inhibition at 10 µM in data set [3] came to 23.6 ± 3.59%. In addition, in data set [4], the inhibition at 10 µM is 54.2 ± 3.88%. Further, the inhibition at 10 µM in data set [5] was found to be 84.14 ± 0.79%.
As for `COc1cccc(N2CCN(C(=O)CSc3nnc(-c4cc5c(cn4)[nH]c4ccccc45)o3)CC2)c1` [Compound 7j], the inhibition at 10 µM worked out at 14.7 ± 4.49% in data set [2] (setting [6]); 34 ± 0.87% in data set [1]; 13.6 ± 1.21% in data set [3]; 39.9 ± 3.5% in data set [4]; 13.4 ± 0.68% in data set [5].
Compound `O=C(CSc1nnc(-c2cc3c(cn2)[nH]c2ccccc23)o1)Nc1ccc(F)cc1` [Compound 7k] came in with a melting point of 296.4 to 297.9 °C. For the same compound, the inhibition at 10 µM in data set [2] (setting [6]) is 35.8 ± 4.09%. In data set [1], the inhibition at 10 µM worked out at 10.1 ± 6.19%. Besides, in data set [3], the inhibition at 10 µM was determined as 12.2 ± 0.18%. For the same compound, the inhibition at 10 µM in data set [4] was 47.5 ± 1.39%. Further, in data set [5], the inhibition at 10 µM worked out at 30.8 ± 2.59%.
On to `O=C(CSc1nnc(-c2cc3c(cn2)[nH]c2ccccc23)o1)N1CCOCC1` [Compound 7l], for which the melting point lay in the range of 228.3 to 229.6 °C. The inhibition at 10 µM in data set [2] (setting [6]) amounted to 39.6 ± 5.06%. The inhibition at 10 µM in data set [1] worked out at 12.2 ± 6.14%. Besides, in data set [3], the inhibition at 10 µM worked out at 9.28 ± 2.51%. The inhibition at 10 µM in data set [4] is 19.3 ± 5.03%. The inhibition at 10 µM in data set [5] worked out at 11.2 ± 7.91%.
`CS(=O)(=O)N1CCN(C(=O)CSc2nnc(-c3cc4c(cn3)[nH]c3ccccc34)o2)CC1` [Compound 7m]: the melting point is 174.3 to 175.6 °C. Besides, the inhibition at 10 µM in data set [2] (setting [6]) came out at 20 ± 3.22%. The inhibition at 10 µM in data set [1] is 14.7 ± 3.64%. For the same compound, the inhibition at 10 µM in data set [3] was 33 ± 1.83%. The inhibition at 10 µM in data set [4] amounted to 25.2 ± 4.1%. Besides, the inhibition at 10 µM in data set [5] amounted to 29.5 ± 3.33%.
In turn, `O=C(CSc1nnc(-c2cc3c(cn2)[nH]c2ccccc23)o1)N1CCOc2ccccc21` [Compound 7n] yielded a melting point of 232.4 to 232.8 °C. The inhibition at 10 µM in data set [2] (setting [6]) was 36 ± 3.68%. In data set [1], the inhibition at 10 µM was found to be 8.72 ± 2.57%. Moreover, the inhibition at 10 µM in data set [3] was 35.1 ± 3.12%. Besides, the inhibition at 10 µM in data set [4] was 47.8 ± 0.82%. The inhibition at 10 µM in data set [5] came out at 61.8 ± 1.57%.
Turning to `O=C(CSc1nnc(-c2cc3c(cn2)[nH]c2ccccc23)o1)N1CCN(C(c2ccc(F)cc2)c2ccc(F)cc2)CC1` [Compound 7o], the inhibition at 10 µM is 5.36 ± 3.63% in data set [2] (setting [6]); < 0% in data set [1]; 1.26 ± 3.66% in data set [3]; 25 ± 1.43% in data set [4]; 35.3 ± 3.81% in data set [5].
As to `O=C(CSc1nnc(-c2cc3c(cn2)[nH]c2ccccc23)o1)N1CCN(C2CCCCC2)CC1` [Compound 7p], the melting point lay within 158.8 to 161.4 °C. Also, in data set [2] (setting [6]), the inhibition at 10 µM came out at 51.2 ± 3.11%. Further, the inhibition at 10 µM in data set [1] came out at 17 ± 2.1%. Also, the inhibition at 10 µM in data set [3] amounted to 8.68 ± 6.83%. In addition, in data set [4], the inhibition at 10 µM stood at 50.7 ± 5.79%. In data set [5], the inhibition at 10 µM is 61.5 ± 3.24%.
In the case of `O=C(CSc1nnc(-c2cc3c(cn2)[nH]c2ccccc23)o1)Nc1ccc(CN2CCOCC2)cc1` [Compound 7q], the inhibition at 10 µM stood at 29.5 ± 1.38% in data set [2] (setting [6]); 8.67 ± 0.64% in data set [1]; 17 ± 1.86% in data set [3]; 46.4 ± 2.86% in data set [4]; 32.3 ± 2.21% in data set [5].
`O=C(CSc1nnc(-c2cc3c(cn2)[nH]c2ccccc23)o1)N1CCN(c2ccc(C(F)(F)F)cn2)CC1` [Compound 7r] registered a melting point of 300.7 to 302.9 °C. Besides, in data set [2] (setting [6]), the inhibition at 10 µM came out at 44 ± 2.62%. In addition, the inhibition at 10 µM in data set [1] turned out to be 3.03 ± 5.83%. In addition, the inhibition at 10 µM in data set [3] was determined as 17.2 ± 2.35%. Further, the inhibition at 10 µM in data set [4] worked out at 38.4 ± 5.85%. Also, the inhibition at 10 µM in data set [5] was 0.74 ± 3.77%.
As for `COc1cc(-c2nc(-c3nnc(SCC(=O)N4CCN(c5ccc(Cl)c(Cl)c5)CC4)o3)cc3c2[nH]c2ccccc23)cc(OC)c1OC` [Compound 8a], the inhibition at 10 µM in data set [2] (setting [7]) was determined as 7.73 ± 1.33%; in data set [1], 7.02 ± 4.02%; in data set [3], 21 ± 1.65%; in data set [4], 7.49 ± 3.25%; in data set [5] it was 29.4 ± 2.16%.
In the same order, the values of `COc1cc(-c2nc(-c3nnc(SCC(=O)N4CCN(c5ccc(Cl)cc5)CC4)o3)cc3c2[nH]c2ccccc23)cc(OC)c1OC` [Compound 8e] are 26.9 ± 4.39%, 26.8 ± 2.6%, 54.4 ± 2.32%, < 0% and 23.4 ± 3.77%.
In the same order, the values of `COc1cc(-c2nc(-c3nnc(SCC(=O)N4CCN(c5ccccc5)CC4)o3)cc3c2[nH]c2ccccc23)cc(OC)c1OC` [Compound 8i] are 21.3 ± 4.8%, 18.4 ± 1.8%, 25.5 ± 2.72%, 0.56 ± 3.38% and 25.6 ± 3.44%.
`COc1cccc(N2CCN(C(=O)CSc3nnc(-c4cc5c([nH]c6ccccc65)c(-c5cc(OC)c(OC)c(OC)c5)n4)o3)CC2)c1` [Compound 8j]: the inhibition at 10 µM in data set [2] (setting [7]) was 15.7 ± 3.93%; in data set [1] it was 0.13 ± 4.62%; in data set [3] it was 25 ± 3.95%; in data set [4] it was < 0%; in data set [5], 20.4 ± 1.51%.
On the same counts, the results for `COc1cc(-c2nc(-c3nnc(SCC(=O)N4CCN(S(C)(=O)=O)CC4)o3)cc3c2[nH]c2ccccc23)cc(OC)c1OC` [Compound 8m] are 46.58 ± 0.35%, 2.7 ± 1.78%, 30.2 ± 2.16%, < 0% and 21 ± 2.61%.
Take `COc1cc(-c2nc(-c3nnc(SCC(=O)N4CCN(C5CCCCC5)CC4)o3)cc3c2[nH]c2ccccc23)cc(OC)c1OC` [Compound 8p]: the inhibition at 10 µM in data set [2] (setting [7]) stood at 19.1 ± 2.79%; in data set [1] it was 8.84 ± 0.36%; in data set [3] it was 44.6 ± 4.1%; in data set [4], 54.2 ± 4.87%; in data set [5], 28.9 ± 3.22%.

These data come from PMC11547513, “Design, Synthesis and Biological Activity Evaluation of β-Carboline Derivatives Containing Nitrogen Heterocycles” (Molecules, 2024).
